In patent US20140024716A1, “Composition Comprising S-Allyl-L-Cysteine as Active Ingredient for Preventing or Treating Gastrointestinal Disorders” (PHARMAKING CO., LTD., priority 2009, published 2014):

Columns and labels:
[1] = General observation (death, weight) of rats in gastric lesion tests; type: in vivo, Sprague-Dawley rats
Experimental: 7 to 8-week old male specific pathogen free (SPF) HsdKoat:Sprague-Dawley®™ SD®™rats (weight of 7-week old males was in the range of 208.44 to 227.39 g, and weight of 8-week old maleswas in the range of 223.85 to 245.03 g, purchased from Koatech, Co. Ltd., Gyunggido, Korea) were quarantined and acclimated in the Animal Lab for 7 days. The rats were bred at a temperature of 23 3° C., at a relative humidity of 55 15%, with light for 12 hours (light turned on at 08:00 and light turned off at 20:00) while air was ventilated 10 to 20 times/hr in the Animal Experiment Lab of Gyeonggi Bio-Center. Other environments for breeding which might influence the test for the entire test period were not considered for use. The rats were given free access to a solid laboratory diet (Harlan Co. Ltd., USA. Teklad certified global 18% protein rodent diet, 2918C) that was supplied by Folas International. […] The rats were given free access to tap water that was sterilized using a UV sterilizer and a micro filter with water bottles. […]

[2] = test system: Helicobacter pylori-producing toxin VacA; assay: Serum anti-s1 m1 VacA IgG (ELISA) in Helicobacter pylori-infected mice; type: in vivo, C57BL/6 mice; settings: SAC1 and SAC2 groups (200 and 400 mg/kg SAC)
Experimental: S-allyl-L-Cysteine (SAC) was purchased from TCI Chemical Co. (Tokyo, Japan). Helicobacter pylori was American Type Culture Collection (ATCC) 43504 (cagA+, vacA s1-ml type) and cultured in a Mueller Hinton-Agar broth at 37° C. for 48 hours, under 5% CO2 microaerophilic conditions with a concentration of 1×10^9 CFU/ml.
8-week old male C57BL/6 mice were classified into 4 groups, i.e., a positive control group (to which Helicobacter pylori was administered; PC), a negative control group (to which saline was administered; NC), experimental group 1 (to which Helicobacter pylori and 200 mg/kg of SAC were administered; SAC1), and experimental group 2 (to which Helicobacter pylori and 400 mg/kg of SAC were administered; SAC2). Each group had 10 mice. White powdered SAC was diluted in tap water to concentrations of 20 mg/mL and 40 mg/mL and 10 μl/g (body weight) of the diluted SAC was orally administered to the mice of the SAC1 and SAC2 groups three times a week for 10 weeks. The mice were given free access to tap water for the entire test period. […]
Enzyme-linked immunosorbent assay (ELISA) was used in order to identify the effect of SAC on serum anti-Helicobacter pylori antibody-formation capability. […] 100 μl of 0.2 M sulfuric acid was added thereto to terminate the reaction and absorbance was measured at 450 nm.

[3] = test system: gastric lesions of rats induced by hydrochloric acid-ethanol; assay: Hydrochloric acid-ethanol-induced gastric lesion animal model; type: in vivo, Sprague-Dawley rats; settings: for lengths of gastric lesions: 1 h before HCl-ethanol; for lengths of gastric lesions / gastric lesion inhibiting rate (%): p<0.01
Description: SAC was purchased from TCI Chemical Co. (Tokyo, Japan). Sterile water for injection (Model No. 73H5F21, Dae Han Pharmaceutical Co. Ltd.) was used as a vehicle, and Stillen® was used as a positive control material. 0.5% CMC-Na and sterile water for injection were used as excipients for Stillen®. Hydrochloric acid was purchased from Samjung Chemical, Co., ethanol was purchased from Baker, Co., aspirin was purchased from Sigma, Co., and indomethacin was purchased from Sigma, Co.
7 to 8-week old male specific pathogen free (SPF) HsdKoat:Sprague-Dawley®™ SD®™rats (weight of 7-week old males was in the range of 208.44 to 227.39 g, and weight of 8-week old maleswas in the range of 223.85 to 245.03 g, purchased from Koatech, Co. Ltd., Gyunggido, Korea) were quarantined and acclimated in the Animal Lab for 7 days. The rats were bred at a temperature of 23 3° C., at a relative humidity of 55 15%, with light for 12 hours (light turned on at 08:00 and light turned off at 20:00) while air was ventilated 10 to 20 times/hr in the Animal Experiment Lab of Gyeonggi Bio-Center. Other environments for breeding which might influence the test for the entire test period were not considered for use. The rats were given free access to a solid laboratory diet (Harlan Co. Ltd., USA. Teklad certified global 18% protein rodent diet, 2918C) that was supplied by Folas International. […] The rats were given free access to tap water that was sterilized using a UV sterilizer and a micro filter with water bottles.
The rats were classified into a vehicle control group G1 to which only a vehicle was administered, a experimental group G2 to which 100 mg/kg of SAC was administered, a experimental group G3 to which 200 mg/kg of SAC was administered, a experimental group G4 to which 400 mg/kg of SAC was administered, and a positive control group G5 to which 100 mg/kg of Stillen® (55.6 mg/kg as an active ingredient) as a positive control material were administered. Each group included 8 rats in a hydrochloric acid-ethanol-induced animal model (Experiment Example 7) and included 6 rats in an aspirin-induced animal model (Experimental Example 8) and in an indomethacin-induced animal model (Experimental Example 9).
The test substance was directly administered to the stomach using an injection tube equipped with a sonde for oral administration in a single dose once per day.
The test substances were administered. After one hour, 1.5 ml of 150 mM HCl in 60% ethanol was orally administered to each rat. The rats to which ethanol and SAC were administered were fasted without water in stainless steel breeding cages for 1 hour. After one hour from the hydrochloric acid-ethanol administration, the rats were sacrificed under anesthesia using ether and their stomachs including parts of the duodenum and esophagus were isolated. The insides of the stomachs were immediately washed with 13 ml of a 2% neutral buffered formalin, and the duodenum and esophagus parts were fixed with forceps. Then, 13 ml of the 2% neutral buffered formalin was added thereto and maintained for 5 minutes for fixation. The greater curvature of each stomach was incised, fixed to a dissection table, and unfolded to measure the lengths of gastric lesions using vernier calipers. Photographs of the unfolded stomachs were taken (FIG. 12) and the stomachs were fixed with a 10% neutral buffered formalin. […]

SMILES: C=CCSC[C@H](N)C(=O)O [SAC, S-allyl-L-cysteine]
- death and other changes ([1]; 100, 200, 400 mg/kg SAC oral single dose, rats): No animals died and no other changes were observed
- significant weight change with respect to administration ([1]; 100, 200, 400 mg/kg SAC oral, entire test period): not observed
- production of antibody against VacA (anti-s1 m1 VacA IgG) [2]: inhibited in the same manner as in the anti-H. pylori IgG
- lengths of gastric lesions ([3]; 200 mg/kg SAC oral, vehicle 209.60±28.39 mm): 106.65±16.70 mm
- gastric lesion inhibiting rate (%) ([3]; 200 mg/kg SAC): 41.12±7.97%
- lengths of gastric lesions ([3]; 400 mg/kg SAC oral): 72.25±19.33 mm
- gastric lesion inhibiting rate (%) ([3]; 400 mg/kg SAC): 65.53±9.22%
- gastric lesion inhibiting rate (%) up to ([3]; highest rate over SAC doses): about 66%
